The values below come from patent US20260078239A1, “USE OF AN ANTIOXIDANT FOR REDUCING AND/OR PREVENTING THE TOXICITY OF A RUBBER COMPOSITION” (NYCO, priority 2022, published 2026).

For data set [1] the following is noted: hazard statements in words; cited from earlier work.
The test system of the next data set is whole adult planarians. The settings on record: 0.22-22 mg/L, 12 days, control points at 7 and 12 days; for Concentration above which behavioral problems potentially linked to cognitive problems in the planarian are observed: adhesion, speed of movement, rest, phototaxis, scrunching.

SMILES strings stand for the structures.

With `c1ccc(Nc2ccc(NC3CCCCC3)cc2)cc1` [CPPD, N-cyclohexyl-N′-phenyl-p-phenylenediamine], the “Toxicity (confirmed toxicity, ECHA substance information)” value (shortened to “Toxicity”) in data set [1] was “Is toxic to aquatic life with long-term”.

In the case of `c1ccc(Nc2cccc3ccccc23)cc1` [Example 19, N-phenylnaphthalene-1-amine], in the data set on whole adult planarians, the “Concentration above which significant mortality of planarian is observed according to Zhang et al., Neurotoxicology and Teratology, 2019” value turned out to be 6.9 mg/L; the “Concentration above which behavioral problems potentially linked to cognitive problems in the planarian are observed” value lay within 2200 to 3900 ng/mL.

Consider `c1ccc(Nc2ccc(Nc3ccccc3)cc2)cc1` [DPPD, N,N′-diphenyl-p-phenylenediamine], for which the “Toxicity” value in data set [1] is given as “Is harmful to aquatic life with long-term”. Take `CC(C)CC(C)Nc1ccc(Nc2ccccc2)cc1` (centres unmarked) [Example 22, N-(1,3-Dimethylbutyl)-N′-phenyl-p-phenylenediamine]: in the data set with whole adult planarians, the “Concentration above which significant mortality of planarian is observed according to Zhang et al., Neurotoxicology and Teratology, 2019” value stood at 4.8 mg/L; the “Concentration above which behavioral problems potentially linked to cognitive problems in the planarian are observed” value is 1500 ng/mL. Besides, the “Toxicity” value in data set [1] is “Harms fertility or has a negative impact”. For the compound `CC(C)(C)c1cc(Cc2cc(C(C)(C)C)c(O)c(C(C)(C)C)c2)cc(C(C)(C)C)c1O` [Example 3, 4,4′-Methylene-bis-(2,6-di-tert-butylphenol)], the “Toxicity” value in data set [1] is on record as “Under evaluation as an endocrine”.
